Test results as given in publication PMC10760875, “Synthesis of alnustone-like diarylpentanoids via a 4 + 1 strategy and assessment of their potential anticancer activity” (Turkish Journal of Chemistry, 2023).
Where two headings read alike, the source gives them in different places.

What was measured:
[1] = tested on: U87-MG cells; assay: Hoechst 33258 nuclear staining, U87-MG; type: cell-based, human; conditions: IC50 concentration, 48 h
Method: (§1) Cell morphological characteristics were examined via the fluorescent Hoechst 33258 staining approach. […] The nuclei in the untreated group were stained a less brilliant blue and the color was uniform. After 48 h of treatment at the IC50 concentrations of compounds 5a and 5i, the blue emission light in the apoptotic cells was considerably brighter than in the control cells. Many compound-treated cells also had condensed chromatin, and some had the shape of apoptotic bodies, which is one of the basic features of apoptotic cells (Figures 5 and 6). In line with these findings, it was previously reported that the diarylpentanoid BP-M345 exerted potential as an anticancer drug, showing its antiproliferative activity by preventing mitosis through microtubule disruption and inducing cancer cell death. Likewise, diarylpentanoid derivatives have led to intrinsic apoptosis in cancer cells by upregulating proapoptotic proteins such as Bad and Bax and downregulating prosurvival proteins such as Bcl-2 and Bcl-xL [33]. […]
(§2) Hoechst 33258 staining was used to assess significant morphological changes in the nuclear chromatin of the cells. […] Thereafter, the cells were observed using a Leica DMIRB fluorescence microscope (Leica Microsystems, Wetzlar, Germany). […]

[2] = tested on: MCF-7 cells (breast cancer); assay: MTT cytotoxicity assay, MCF-7; type: cell-based, human; conditions: for SI, MCF-7 cells: SI = IC50 normal cells (HPAEpiC)/IC50 MCF-7; for IC50: MTT, 48 h, read-out: IC50 against MCF-7
Method: (§3) GBM (U87-MG), breast cancer (MCF-7), prostate carcinoma (PC-3), and lung epithelium (HPAEpiC) cell lines were used to assess the cytotoxic action potential of compounds 5a–5l. The cells were grown in a single layer in flasks in appropriate medium containing 10% fetal bovine serum (FBS), 1% penicillin/streptomycin, and 1% L-glutamine at 37 °C and 5% CO2 to maintain the pH balance. Cells that had reached 70%–80% confluence were used in the experiments.
(§4) The 3-(4,5-dimethylthiazol-2-yl)-2,5-diphenyltetrazolium bromide (MTT) method is a widely used colorimetric method for the quantitative determination of cell viability. It is based on the reduction of the tetrazolium ring of the yellow dye MTT by living cells. As a result of the reduction, the tetrazolium ring breaks down to form a dark blue-violet formazan compound. Cell viability is then determined spectrophotometrically. The viability of untreated cells is assumed to be 100% and the viability of treated cells is determined as a percentage (%) according to those cells.
(§5) To each 96-well plate, 2 × 10^4 cells were seeded and treated with 6 different concentrations (3.125, 6.25, 12.5, 25, 50, and 100 mg/L) of the 12 tested compounds, and then the plates were incubated in a CO2 oven at 37 °C for 48 h. At the end of the incubation, 10 μL of the MTT mixture was added to each well using a pipette, which was then gently mixed for 1 min on a circular mixer. The cells were incubated in a CO2 oven at 37 °C for 3–4 h. The formazan that formed as a result of the incubation was seen as dark crystals at the bottoms of the wells. The culture medium was carefully aspirated from each well without dispersing the cell layer, and then 100 μL of dimethyl sulfoxide (DMSO) was added to each well and gently stirred on an orbital stirrer to dissolve the formazan crystals. Each sample was read at a wavelength of 570 nm in a spectrophotometer and absorbance values were obtained. A wavelength of 630 nm was used as the reference wavelength.
(§6) Percent viability and cytotoxicity values for each dose administered were calculated according to the following formulas:
(§7) • % Viability = (absorbance of the sample/absorbance of the control) × 100 • % Cytotoxicity = [1 – (absorbance of the sample/absorbance of the control)] × 100
(§8) The IC50 dose, as the concentration of inhibitor that caused a 50% decrease in cell viability, was calculated using Excel regression analysis.
(§9) Human GBM (U87-MG), breast cancer (MCF-7), prostate cancer (PC-3), and pulmonary alveolar epithelial cells (HPAEpiC) cell lines from the American Type Culture Collection (ATCC) were used for the cytotoxicity testing of compounds 5a–5l. The cells were grown as a single layer in appropriate medium containing 10% FBS, 1% penicillin/streptomycin, and 1% L-glutamine at 37 °C and 5% CO2 atmosphere.
(§10) The cytotoxicity analyses of all of the compounds were investigated by determining cell viability based on the colorimetric MTT assay, which was conducted according to the manufacturer’s guide. First, […] were seeded in a 96-well plate and then incubated at 37 °C in a 5% CO2 environment for 24 h. The medium was aspirated the following day, and […] of each concentration of the 12 tested compounds (3.125, 6.25, 12.5, 25, 50, and 100 mg/L) were separately added to each well. The plates were then incubated for 48 h at 37 °C with 5% CO2. Next, 10 μL of MTT solution was added to each well and the plate was incubated for 4 h. The culture medium was aspirated from the wells without dispersing the cell layer and then 100 μL of DMSO was added to each well and stirred on an orbital stirrer to dissolve the formazan crystals. Each sample was read at a wavelength of 570 nm in a spectrophotometer and absorbance values were obtained. A wavelength of 630 nm was used as the reference. Cell viability was expressed as a percentage compared to the untreated cells. All experiments were performed in triplicate.

[3] = tested on: PC-3 cells (prostate cancer); assay: MTT cytotoxicity assay, PC-3; type: cell-based, human; conditions: for IC50: MTT, 48 h, read-out: IC50 against PC-3; for SI, PC-3 cells: SI = IC50 normal cells (HPAEpiC)/IC50 PC-3
Method: as §3, §4, §5, §6, §7, §8, §9, §10

[4] = tested on: U87-MG cells (human glioblastoma); assay: MTT cytotoxicity assay, U87-MG; type: cell-based; conditions: for IC50: Homo sapiens, U-87 MG, MTT, 48 h, read-out: IC50 against U87-MG; for SI, U87-MG cells: SI = IC50 normal cells (HPAEpiC)/IC50 U87-MG
Method: as §3, §4, §5, §6, §7, §8, §9, §10

[5] = tested on: HPAEpiC cells (pulmonary alveolar epithelial cells); assay: MTT cytotoxicity assay, healthy HPAEpiC; type: cell-based; conditions: Homo sapiens, Epithelial cell, 48 h, read-out: IC50 against HPAEpiC (healthy cells)
Method: as §3, §4, §5, §6, §7, §8, §9, §10

[6] = tested on: MCF-7 cells; assay: Hoechst 33258 nuclear staining, MCF-7; type: cell-based, human; conditions: IC50 concentration, 48 h
Method: as §1, §2

Row | SMILES | melting point | Nuclear morphology by Hoechst 33258 staining, U87-MG [1] | SI, MCF-7 cells [2] | IC50 ([3]; Homo sapiens, PC-3, 48 h) | SI, PC-3 cells [3] | IC50 [4] | SI, U87-MG cells [4] | IC50 [5] | Nuclear morphology by Hoechst 33258 staining, MCF-7 [6] | IC50 [3] | IC50 ([2]; Homo sapiens, MCF7, 48 h) | IC50 [2]
1 | O=C(/C=C/c1ccccc1)CCc1ccccc1 [Compound 5a, (E)-1,5-diphenylpent-1-en-3-one] |  | apoptotic cells with fragmented nuclei | 7.45 | 50.1 µM | 1.69 | 107 µM | 0.79 | 84.8 µM | apoptotic cells with fragmented nuclei |  |  | 
2 | O=C(/C=C/c1ccc(O)cc1)CCc1ccccc1 [Compound 5b, (E)-1-(4-hydroxyphenyl)-5-phenylpent-1-en-3-one] | 136 to 137 °C |  | 0.58 | < 30 µM | 0.25 | 70.9 µM | 0.08 | 5.51 µM |  | 22 µM |  | 
3 | COc1ccc(/C=C/C(=O)CCc2ccccc2)cc1 [Compound 5c, (E)-1-(4-methoxyphenyl)-5-phenylpent-1-en-3-one] | 95 to 96 °C |  | 1.84 | 439 µM | 0.21 | 213 µM | 0.42 | 92.3 µM |  |  | 50.2 µM | 
4 | COc1cc(/C=C/C(=O)CCc2ccccc2)ccc1O [Compound 5d, (E)-1-(4-hydroxy-3-methoxyphenyl)-5-phenylpent-1-en-3-one] | 89 to 90 °C |  | 0.52 | < 30 µM | 0.69 | 31.9 µM | 0.45 | 14.4 µM |  | 20.9 µM | < 30 µM | 27.8 µM
5 | COc1ccc(/C=C/C(=O)CCc2ccccc2)cc1O [Compound 5e, (E)-1-(3-hydroxy-4-methoxyphenyl)-5-phenylpent-1-en-3-one] | 94 to 95 °C |  | 1.21 | 95.8 µM | 0.28 | 133 µM | 0.20 | 26.4 µM |  |  | < 30 µM | 21.8 µM
6 | O=C(/C=C/c1ccc(O)c(O)c1)CCc1ccccc1 [Compound 5f, (E)-1-(3,4-dihydroxyphenyl)-5-phenylpent-1-en-3-one] |  |  | 0.08 | 97.5 µM | 0.44 | 33.4 µM | 1.29 | 43.1 µM |  |  | 544 µM | 
7 | O=C(/C=C/c1ccccc1)CCc1ccc(O)cc1 [Compound 5g, (E)-5-(4-hydroxyphenyl)-1-phenylpent-1-en-3-one] | 96 to 97 °C |  | 1.31 | 291 µM | 0.07 | 128 µM | 0.17 | 21.1 µM |  |  | < 30 µM | 16.2 µM
8 | COc1ccc(/C=C/C(=O)CCc2ccc(O)cc2)cc1 [Compound 5i, (E)-5-(4-hydroxyphenyl)-1-(4-methoxyphenyl)pent-1-en-3-one] |  | apoptotic cells with fragmented nuclei | 2.52 |  | 1.53 | 233 µM | 0.06 | 14.9 µM | apoptotic cells with fragmented nuclei |  |  | 
9 | COc1cccc2c1C(=O)c1c(O)c3c(c(O)c1C2=O)C[C@@](O)(C(=O)CO)C[C@@H]3O[C@H]1C[C@H](N)[C@H](O)[C@H](C)O1 [DOX control (+), doxorubicin, reference compound] |  |  | 4.38 | 6.76 µM | 9.53 | 8.95 µM | 7.20 | 64.4 µM |  |  | 14.7 µM | 

The next lines start with results.

Row | melting point | SMILES | Nuclear morphology by Hoechst 33258 staining, U87-MG [1] | SI, MCF-7 cells [2] | IC50 ([3]; Homo sapiens, PC-3, 48 h) | SI, PC-3 cells [3] | IC50 [4] | SI, U87-MG cells [4] | IC50 [5] | Nuclear morphology by Hoechst 33258 staining, MCF-7 [6] | IC50 [3] | IC50 ([2]; Homo sapiens, MCF7, 48 h) | IC50 [2]
10 | 146 to 147 °C | O=C(/C=C/c1ccc(O)cc1)CCc1ccc(O)cc1 [Compound 5h, (E) 1,5-bis(4-hydroxyphenyl)pent-1-en-3-one] |  | 1.92 | 437 µM | 0.12 | 358 µM | 0.14 | 51.4 µM |  |  | < 30 µM | 26.7 µM
11 | 131 to 132 °C | COc1cc(/C=C/C(=O)CCc2ccc(O)cc2)ccc1O [Compound 5j, (E)-1-(4-hydroxy-3-methoxyphenyl)-5-(4-hydroxyphenyl)pent-1-en-3-one] |  | 2.67 | 32.2 µM | 2.90 | 75.7 µM | 1.23 | 93.4 µM |  |  | 35 µM | 
12 | 130 to 131 °C | COc1ccc(/C=C/C(=O)CCc2ccc(O)cc2)cc1O [Compound 5k, (E)-1-(3-hydroxy-4-methoxyphenyl)-5-(4-hydroxyphenyl)pent-1-en-3-one] |  | 0.34 | 45.1 µM | 1.54 | 52.6 µM | 1.32 | 69.3 µM |  |  | 203 µM | 
13 | 202 to 203 °C | O=C(/C=C/c1ccc(O)c(O)c1)CCc1ccc(O)cc1 [Compound 5l, (E)-1-(3,4-dihydroxyphenyl)-5-(4-hydroxyphenyl)pent-1-en-3-one] |  | 1.25 | 185 µM | 2.14 | 287 µM | 1.38 | 396 µM |  |  | 317 µM | 
